Results published in PubChem BioAssay (NCI).
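Results reflect a 48-hour exposure of cells in 96-well plates to compound at five concentrations. The concentration for 50% growth inhibition is given as GI50. TGI marks complete inhibition of growth.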

Experiments:
Experiment in all cases: NCI-60 cell line screen, 48 h
[1] = tested on: HS 578T breast
[2] = tested on: MALME-3M melanoma
[3] = tested on: EKVX NSCLC
[4] = tested on: HCT-15 colon
[5] = tested on: MOLT-4 leukemia
[6] = tested on: SW-620 colon
[7] = tested on: NCI-H460 lung
[8] = tested on: HOP-62 NSCLC
[9] = tested on: CAKI-1 renal
[10] = tested on: HL-60(TB) leukemia
[11] = tested on: UO-31 renal
[12] = tested on: SK-MEL-28 melanoma
[13] = tested on: DU-145 prostate
[14] = tested on: K-562 leukemia
[15] = tested on: PC-3 prostate
[16] = tested on: SR leukemia
[17] = tested on: NCI-H226 lung
[18] = tested on: NCI-H23 lung
[19] = tested on: A498 renal
[20] = tested on: SN12C renal
[21] = tested on: HCC-2998 colon
[22] = tested on: TK-10 renal
[23] = tested on: MCF7 breast
[24] = tested on: KM12 colon
[25] = tested on: 786-0 renal
[26] = tested on: BT-549 breast
[27] = tested on: SK-MEL-2 melanoma
[28] = tested on: HCT-116 colon
[29] = tested on: UACC-62 melanoma
[30] = tested on: COLO 205 colon
[31] = tested on: T-47D breast
[32] = tested on: A549 NSCLC
[33] = tested on: ACHN renal
[34] = tested on: SK-MEL-5 melanoma
[35] = tested on: HOP-92 NSCLC
[36] = tested on: OVCAR-3 ovarian
[37] = tested on: SF-268 CNS
[38] = tested on: RXF 393 renal
[39] = tested on: LOX IMVI melanoma
[40] = tested on: OVCAR-5 ovarian
[41] = tested on: OVCAR-4 ovarian
[42] = tested on: MDA-MB-435
[43] = tested on: MDA-MB-468 breast
[44] = tested on: IGROV1 ovarian
[45] = tested on: SNB-75 CNS
[46] = tested on: MDA-MB-231 breast
[47] = tested on: UACC-257 melanoma
[48] = tested on: SNB-19 CNS
[49] = tested on: RPMI-8226 leukemia
[50] = tested on: SK-OV-3 ovarian
[51] = tested on: SF-539 CNS
[52] = tested on: HT29 colon
[53] = tested on: M14 melanoma
[54] = tested on: SF-295 CNS

`COc1ccc(OC)c(/C=C/C(=O)c2nc3ccccc3n2Cc2ccc(F)cc2)c1` gave a GI50 [1] of 3.12 µM, a TGI [1] of over 100 µM and a GI50 [2] of 3 µM. For the same molecule, the TGI [2] was 14.3 µM, the GI50 [3] was 2.77 µM and the TGI [3] was over 100 µM. The GI50 [4] was 1.62 µM, the TGI [4] was 3.69 µM and the GI50 [5] was 2.15 µM. It also gave a TGI [5] of 7.98 µM, a GI50 [6] of 2.03 µM and a TGI [6] of 4.63 µM. It also gave a GI50 [7] of 1.67 µM, a TGI [7] of 4 µM and a GI50 [8] of 3.08 µM. It also gave a TGI [8] of 11.2 µM, a GI50 [9] of 3.08 µM and a TGI [9] of over 100 µM. It also gave a GI50 [10] of 1.57 µM, a TGI [10] of 5.93 µM and a GI50 [11] of 2.37 µM. For the same molecule, the TGI [11] was 8.61 µM, the GI50 [12] was 2.18 µM and the TGI [12] was 4.68 µM. It also gave a GI50 [13] of 3.53 µM, a TGI [13] of over 100 µM and a GI50 [14] of 2.52 µM. The TGI [14] was over 100 µM, the GI50 [15] was 3.82 µM and the TGI [15] was over 100 µM. For the same molecule, the GI50 [16] was 2.2 µM, the TGI [16] was 7.4 µM and the GI50 [17] was 4.03 µM. It also gave a TGI [17] of 25.5 µM, a GI50 [18] of 2.24 µM and a TGI [18] of 6.62 µM. For the same molecule, the GI50 [19] was 34.8 µM, the TGI [19] was over 100 µM and the GI50 [20] was 3.47 µM. The TGI [20] was over 100 µM, the GI50 [21] was 1.95 µM and the TGI [21] was 3.93 µM. The GI50 [22] was 3.26 µM, the TGI [22] was 17 µM and the GI50 [23] was 2.15 µM. It also gave a TGI [23] of over 100 µM, a GI50 [24] of 2.52 µM and a TGI [24] of 7.14 µM. For the same molecule, the GI50 [25] was 2.93 µM, the TGI [25] was 9.51 µM and the GI50 [26] was 2.61 µM. It also gave a TGI [26] of 7.6 µM, a GI50 [27] of 1.94 µM and a TGI [27] of 4.19 µM. The GI50 [28] was 1.61 µM, the TGI [28] was 3.06 µM and the GI50 [29] was 1.93 µM. For the same molecule, the TGI [29] was 5.06 µM, the GI50 [30] was 2.61 µM and the TGI [30] was 8.08 µM. For the same molecule, the GI50 [31] was 2.95 µM, the TGI [31] was over 100 µM and the GI50 [32] was 3.27 µM. The TGI [32] was over 100 µM, the GI50 [33] was 2.94 µM and the TGI [33] was 9.13 µM. For the same molecule, the GI50 [34] was 2.73 µM, the TGI [34] was 10.1 µM and the GI50 [35] was 2.88 µM. The TGI [35] was 43.8 µM, the GI50 [36] was 2.17 µM and the TGI [36] was 5.6 µM. The GI50 [37] was 3.5 µM, the TGI [37] was over 100 µM and the GI50 [38] was 1.92 µM. It also gave a TGI [38] of 4.41 µM, a GI50 [39] of 1.56 µM and a TGI [39] of 3.06 µM. The GI50 [40] was 2.45 µM, the TGI [40] was 5.56 µM and the GI50 [41] was 5.02 µM. It also gave a TGI [41] of over 100 µM, a GI50 [42] of 2.02 µM and a TGI [42] of 4.94 µM. For the same molecule, the GI50 [43] was 2.11 µM, the TGI [43] was 5.8 µM and the GI50 [44] was 3.01 µM. It also gave a TGI [44] of 11.1 µM, a GI50 [45] of 1.54 µM and a TGI [45] of 6.66 µM. The GI50 [46] was 2 µM, the TGI [46] was 4.43 µM and the GI50 [47] was 4.03 µM. It also gave a TGI [47] of 27.3 µM, a GI50 [48] of 2.31 µM and a TGI [48] of 6.08 µM. The GI50 [49] was 2.05 µM, the TGI [49] was 5.89 µM and the GI50 [50] was 11.4 µM. The TGI [50] was over 100 µM, the GI50 [51] was 2.14 µM and the TGI [51] was 4.67 µM. For the same molecule, the GI50 [52] was 2.34 µM, the TGI [52] was 5.43 µM and the GI50 [53] was 2.67 µM. For the same molecule, the TGI [53] was 9.56 µM, the GI50 [54] was 3.05 µM and the TGI [54] was 13.2 µM.
